Source: patent US10336702B2, “Pharmaceutically active compounds” (BERGENBIO ASA, priority 2015, dated 2019)

Legend:
[1] = biological target: T1, Akt1 (Homo sapiens, UniProt P31749); test: Akt activation assay (PDK1-mediated activation, LANCE Ultra crosstide TR-FRET), Akt1; type: biochemical; conditions: read-out: Biological Assay 1 IC50 (nM) Akt1
T1 construct: unspecified tag, removed (detagged) (cleaved yes); purchased SignalChem and Proteros (Akt1); Merck Millipore (PDK1) 14-452 (PDK1); none given for Akt1
T1 sequence (P31749 whole entry): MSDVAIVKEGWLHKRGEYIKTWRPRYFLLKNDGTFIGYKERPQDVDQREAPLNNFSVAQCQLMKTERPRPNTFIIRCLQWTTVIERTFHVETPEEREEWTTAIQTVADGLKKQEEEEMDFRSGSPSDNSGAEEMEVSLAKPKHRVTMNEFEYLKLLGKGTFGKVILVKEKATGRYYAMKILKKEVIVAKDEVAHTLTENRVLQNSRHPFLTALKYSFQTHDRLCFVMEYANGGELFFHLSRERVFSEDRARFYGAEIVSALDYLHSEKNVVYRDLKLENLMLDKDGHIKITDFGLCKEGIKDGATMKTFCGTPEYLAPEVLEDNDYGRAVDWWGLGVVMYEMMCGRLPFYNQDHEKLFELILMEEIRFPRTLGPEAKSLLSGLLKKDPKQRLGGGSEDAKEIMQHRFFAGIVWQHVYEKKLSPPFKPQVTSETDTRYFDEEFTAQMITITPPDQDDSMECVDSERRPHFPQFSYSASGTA
Outline: (§1)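 This TR-FRET readout (Eu-anti-phospho-crosstide antibody, 665/615 nm) measured PDK1-driven activation of Akt. Compound was first preincubated with each Akt isoform: Akt1 5 nM; Akt2 15 nM SignalChem or 5 nM Proteros; Akt3 3 nM SignalChem or 5 nM Proteros. Reactions then ran 30 min with 5 nM PDK1, lipid vesicles containing 0.55 µM PtdIns(3,4,5)P3, 100 µM ATP and 100 nM crosstide at pH 7.5, and IC50 came from a 4-parameter equation.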

[2] = biological target: T2, Akt2 (Homo sapiens, UniProt P31751); test: Akt activation assay (PDK1-mediated activation, LANCE Ultra crosstide TR-FRET), Akt2; type: biochemical; conditions: read-out: Biological Assay 1 IC50 (nM) Akt2
T2 construct: unspecified tag, removed (detagged) (cleaved yes); purchased SignalChem and Proteros (Akt2); Merck Millipore (PDK1) 14-452 (PDK1); none given for Akt2
T2 sequence (P31751 whole entry): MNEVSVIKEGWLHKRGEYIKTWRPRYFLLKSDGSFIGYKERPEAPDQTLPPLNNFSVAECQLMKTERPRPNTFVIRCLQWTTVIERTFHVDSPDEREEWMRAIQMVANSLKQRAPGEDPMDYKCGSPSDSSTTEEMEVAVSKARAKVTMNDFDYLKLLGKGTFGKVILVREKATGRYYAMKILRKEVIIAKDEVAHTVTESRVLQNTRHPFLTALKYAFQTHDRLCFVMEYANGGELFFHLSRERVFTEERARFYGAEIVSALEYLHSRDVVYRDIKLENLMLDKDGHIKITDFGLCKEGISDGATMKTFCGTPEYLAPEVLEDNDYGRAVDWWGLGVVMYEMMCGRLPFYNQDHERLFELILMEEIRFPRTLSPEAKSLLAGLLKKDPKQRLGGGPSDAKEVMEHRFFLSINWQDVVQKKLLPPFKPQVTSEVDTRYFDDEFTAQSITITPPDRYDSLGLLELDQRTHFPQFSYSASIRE
Outline: as §1

[3] = biological target: T3, Akt3 (Homo sapiens, UniProt Q9Y243); test: Akt activation assay (PDK1-mediated activation, LANCE Ultra crosstide TR-FRET), Akt3; type: biochemical; conditions: read-out: Biological Assay 1 IC50 (nM) Akt3
T3 construct: unspecified tag, removed (detagged) (cleaved yes); purchased SignalChem and Proteros (Akt3); Merck Millipore (PDK1) 14-452 (PDK1); none given for Akt3
T3 sequence (Q9Y243 whole entry): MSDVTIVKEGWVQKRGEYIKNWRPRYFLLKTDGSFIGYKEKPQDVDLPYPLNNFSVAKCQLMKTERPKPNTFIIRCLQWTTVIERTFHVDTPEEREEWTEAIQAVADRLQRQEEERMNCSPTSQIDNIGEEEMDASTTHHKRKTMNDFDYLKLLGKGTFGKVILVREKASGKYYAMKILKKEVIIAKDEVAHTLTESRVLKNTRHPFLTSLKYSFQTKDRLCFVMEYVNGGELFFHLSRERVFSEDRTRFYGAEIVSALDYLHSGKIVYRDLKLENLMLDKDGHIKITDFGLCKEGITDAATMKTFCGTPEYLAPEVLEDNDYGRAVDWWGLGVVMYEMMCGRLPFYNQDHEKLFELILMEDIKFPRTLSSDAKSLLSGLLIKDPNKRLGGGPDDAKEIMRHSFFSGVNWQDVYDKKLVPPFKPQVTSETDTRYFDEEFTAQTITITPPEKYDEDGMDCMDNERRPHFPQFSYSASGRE
Outline: as §1

[4] = biological target: T4, p-Akt1 in LNCaP cells (Homo sapiens, UniProt P31749); test: Phospho-Akt cellular SureFire assay, p-Akt1 in LNCaP cells; type: cell-based; conditions: read-out: Biological Assay 2 IC50 (nM) Akt1 LNCaP
T4 construct: SureFire assays to detect cellular p-Akt1, p-Akt2 and p-Akt3 levels in WM115 cells (Akt2/3) and LNCaP cells (Akt1); endogenous in cells; host or cells: LNCaP (ECACC 89110211)
T4 sequence (P31749 whole entry): as the sequence (P31749 whole entry) above
Outline: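 Phospho-Thr308 Akt1 detected by AlphaScreen SureFire proximity beads in LNCaP lysates after 15 min compound treatment at 37 °C in 0.1% FBS medium, unstimulated, 0.3% DMSO. Cells plated at 5×10^4/well overnight; IC50 from a 4-parameter equation.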

[5] = biological target: T5, p-Akt2 in WM115 cells (Homo sapiens, UniProt P31751); test: Phospho-Akt cellular SureFire assay, p-Akt2 in WM115 cells; type: cell-based; conditions: insulin stimulated, read-out: Biological Assay 2 IC50 (nM) Akt2 WM115
T5 construct: SureFire assays to detect cellular p-Akt1, p-Akt2 and p-Akt3 levels in WM115 cells (Akt2/3) and LNCaP cells (Akt1); endogenous in cells; host or cells: WM115 (ECACC 91061232), insulin-stimulated
T5 sequence (P31751 whole entry): as the sequence (P31751 whole entry) above
Outline: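 Readout is a bead-proximity SureFire assay pairing a pThr308 Akt antibody with a total Akt2 antibody, lysate and beads incubated 2 h plus 2 h at room temperature in the dark. Before lysis, serum-starved WM115 cells received 100 nM insulin (10 min), then test compound (15 min, 0.3% DMSO); IC50 by 4-parameter equation.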

[6] = biological target: T6, p-Akt3 in WM115 cells (Homo sapiens, UniProt Q9Y243); test: Phospho-Akt cellular SureFire assay, p-Akt3 in WM115 cells; type: cell-based; conditions: insulin stimulated, read-out: Biological Assay 2 IC50 (nM) Akt3 WM115
T6 construct: SureFire assays to detect cellular p-Akt1, p-Akt2 and p-Akt3 levels in WM115 cells (Akt2/3) and LNCaP cells (Akt1); endogenous in cells; host or cells: WM115 (ECACC 91061232), insulin-stimulated
T6 sequence (Q9Y243 whole entry): as the sequence (Q9Y243 whole entry) above
Outline: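 pThr308-Akt3 in lysates was quantified by bead-proximity SureFire detection, pairing a phospho-specific antibody with a total Akt3 antibody. Before lysis, WM115 cells in 0.1% FBS medium were treated for 15 min at 37 °C with compound (final DMSO 0.3%), following a 10 min stimulation with 100 nM insulin. IC50 was obtained by 4-parameter fitting.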

SMILES | IC50 [1] | IC50 [2] | IC50 [3] | IC50 [4] | IC50 [5] | IC50 [6]
CCC(=O)N(C)[C@H]1CC[C@H](CC(=O)Nc2cc(-c3ccsc3)c(-c3ccc([C@]4(N)C[C@](C)(O)C4)cc3)nn2)CC1 [Example 91, N-(trans-4-(2-((6-(4-(trans-1-amino-3-hydroxy-3-methylcyclobutyl)phenyl)-5-(thiophen-3-yl)pyridazin-3-yl)amino)-2-oxoethyl)cyclohexyl)-N-methylpropionamide] | 7000 nM | 160 nM | 5 nM | 3800 nM | 900 nM | 13 nM
COC(=O)N(C)[C@H]1CC[C@H](CC(=O)Nc2cc(-c3ccccc3)c(-c3ccc(C4(N)CCC4)cc3)cn2)CC1 [Example A61, Methyl (trans-4-(2-((5-(4-(1-aminocyclobutyl)phenyl)-4-phenylpyridin-2-yl)amino)-2-oxoethyl)cyclohexyl)(methyl)carbamate] | > 30000 nM | 1300 nM | 77 nM | > 30000 nM | > 27000 nM | 910 nM
CCC(=O)N(C)[C@H]1CC[C@H](CC(=O)Nc2cc(-c3ccccc3)c(-c3ccc(C(C)(C)N)cc3)nn2)CC1 [Example A84, N-(trans-4-(2-((6-(4-(2-aminopropan-2-yl)phenyl)-5-phenylpyridazin-3-yl)amino)-2-oxoethyl)cyclohexyl)-N-methylpropionamide] | > 30000 nM | 4000 nM | 51 nM | > 30000 nM | 7100 nM | 150 nM
CC(C)(C)CC(=O)N[C@H]1CC[C@H](CC(=O)Nc2cnc(-c3ccc(C(C)(C)N)cc3)c(-c3ccccc3)c2)CC1 [Example A37, N-(trans-4-(2-((6-(4-(2-aminopropan-2-yl)phenyl)-5-phenylpyridin-3-yl)amino)-2-oxoethyl)cyclohexyl)-3,3-dimethylbutanamide] | > 30000 nM | 3500 nM | 61 nM | > 30000 nM | 8700 nM | 340 nM
COC(=O)N(C(C)C)[C@H]1CC[C@H](CC(=O)Nc2cc(-c3ccccc3)c(-c3ccc([C@]4(N)C[C@](C)(O)C4)cc3)cn2)CC1 [Example A105, Methyl (trans-4-(2-((5-(4-(trans-1-amino-3-hydroxy-3-methylcyclobutyl)phenyl)-4-phenylpyridin-2-yl)amino)-2-oxoethyl)cyclohexyl)(isopropyl)carbamate] | > 15000 nM | 220 nM | 20 nM | 9000 nM | 5100 nM | 300 nM
CC(C)(N)c1ccc(-c2ncc(NC(=O)C[C@H]3CC[C@H](N4CCOCC4)CC3)cc2-c2ccccc2)cc1 [Example A18, N-(6-(4-(2-aminopropan-2-yl)phenyl)-5-phenylpyridin-3-yl)-2-(trans-4-morpholinocyclohexyl)acetamide] | > 30000 nM | 25000 nM | 6300 nM | > 27000 nM | 7900 nM | 270 nM
CCOC(=O)N(C)[C@H]1CC[C@H](CC(=O)Nc2cc(-c3ccccc3)c(-c3ccc(C4(N)CC4)cc3)nn2)CC1 [Example A94, Ethyl (trans-4-(2-((6-(4-(1-aminocyclopropyl)phenyl)-5-phenylpyridazin-3-yl)amino)-2-oxoethyl)cyclohexyl)(methyl)carbamate] | > 23000 nM | 2200 nM | 57 nM | > 30000 nM | 6000 nM | 370 nM
CC(C)(N)c1ccc(-c2ncc(NC(=O)C[C@H]3CC[C@H](NC(=O)CC4CC4)CC3)cc2-c2ccccc2)cc1 [Example 29, N-(6-(4-(2-aminopropan-2-yl)phenyl)-5-phenylpyridin-3-yl)-2-(trans-4-(2-cyclopropylacetamido)cyclohexyl)acetamide] | > 33000 nM | 2200 nM | 53 nM | > 13000 nM | 8400 nM | 170 nM
CCOC(=O)N(C)[C@H]1CC[C@H](CC(=O)Nc2cnc(-c3ccc(C(C)(C)N)cc3)c(-c3ccccc3)c2)CC1 [Example A99, Ethyl (trans-4-(2-((6-(4-(2-aminopropan-2-yl)phenyl)-5-phenylpyridin-3-yl)amino)-2-oxoethyl)cyclohexyl)(methyl)carbamate] | > 27000 nM | 3000 nM | 130 nM | > 30000 nM | 7800 nM | 440 nM
CC(C)(N)c1ccc(-c2ncc(NC(=O)C[C@H]3CC[C@H](C(=O)N4CCCC4)CC3)cc2-c2ccccc2)cc1 [Example A47, N-(6-(4-(2-aminopropan-2-yl)phenyl)-5-phenylpyridin-3-yl)-2-(trans-4-(pyrrolidine-1-carbonyl)cyclohexyl)acetamide] | > 30000 nM | 2100 nM | 370 nM | > 30000 nM | 11000 nM | 440 nM
CC(C)(N)c1ccc(-c2ncc(NC(=O)C[C@H]3CC[C@H](C(=O)N4CCOCC4)CC3)cc2-c2ccccc2)cc1 [Example A46, N-(6-(4-(2-aminopropan-2-yl)phenyl)-5-phenylpyridin-3-yl)-2-(trans-4-(morpholine-4-carbonyl)cyclohexyl)acetamide] | > 30000 nM | 2400 nM | 1000 nM | > 30000 nM | 6300 nM | 190 nM
CC(=O)N(C)[C@H]1CC[C@H](CC(=O)Nc2cc(-c3ccsc3)c(-c3ccc(C4(N)CCC4)cc3)cn2)CC1 [Example A64, N-(5-(4-(1-aminocyclobutyl)phenyl)-4-(thiophen-3-yl)pyridin-2-yl)-2-(trans-4-(N-methylacetamido)cyclohexyl)acetamide] | > 30000 nM | 1400 nM | 30 nM | > 30000 nM | 1400 nM | 85 nM
CN(C1CCC(CC(=O)Nc2cnc(-c3ccc(C(C)(C)N)cc3)c(-c3ccccc3)c2)CC1)C1(C)COC1 (stereo not drawn) [Example 35, N-(6-(4-(2-aminopropan-2-yl)phenyl)-5-phenylpyridin-3-yl)-2-(4-(methyl(3-methyloxetan-3-yl)amino)cyclohexyl)acetamide] | > 30000 nM | 25000 nM | 17000 nM | > 30000 nM | 17000 nM | 1500 nM
COC1(OC)CCC(CC(=O)Nc2cnc(-c3ccc(C4(N)COC4)cc3)c(-c3ccccc3)c2)CC1 [Example 36, N-(6-(4-(3-aminooxetan-3-yl)phenyl)-5-phenylpyridin-3-yl)-2-(4,4-dimethoxycyclohexyl)acetamide] | > 30000 nM | > 30000 nM | 100 nM | > 30000 nM | 3800 nM | 230 nM
CN(C(=O)C1CCC1)[C@H]1CC[C@H](CC(=O)Nc2cc(-c3ccccc3)c(-c3ccc(C(C)(C)N)cc3)nn2)CC1 [Example A87, N-(trans-4-(2-((6-(4-(2-aminopropan-2-yl)phenyl)-5-phenylpyridazin-3-yl)amino)-2-oxoethyl)cyclohexyl)-N-methylcyclobutanecarboxamide] | > 30000 nM | 5500 nM | 99 nM | > 23000 nM | 12000 nM | 400 nM
CC(=O)N(C)[C@H]1CC[C@H](CC(=O)Nc2cc(-c3ccccc3)c(-c3ccc(C(C)(C)N)cc3)nn2)CC1 [Example 30, N-(6-(4-(2-aminopropan-2-yl)phenyl)-5-phenylpyridazin-3-yl)-2-(trans-4-(N-methylacetamido)cyclohexyl)acetamide] | > 30000 nM | 12000 nM | 470 nM | > 30000 nM | 6800 nM | 72 nM
